The text below walks through data of PubChem BioAssay AID1195 (EPA DSSTox, 2008).

For this data set, the system named is human maximum recommended daily dose, FDA database. The data set can be described thus: DSSTox (FDAMDD) FDA Maximum (Recommended) Daily Dose Database. The note with it: stronger effect = lower value. An outline of the steps: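 MRDD values come from clinical trials with daily oral dosing, usually for 3–12 months, for the average adult, in mg/day converted to mg/kg-bw/day assuming 60 kg. Antineoplastic mg/m2 doses are divided by 37. Activity score maps log10(1/MRDD mmol) onto 1–100.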

Setting [1] is: TherapeuticCategory: antibacterial.
[2] abbreviates: TherapeuticCategory: antidepressant.
Where [3] appears, read: TherapeuticCategory: glucocorticoid.
The mark [4] stands for this setting: TherapeuticCategory: antidiabetic.
[5] abbreviates: TherapeuticCategory: sedative, hypnotic.
The mark [6] stands for this setting: TherapeuticCategory: diagnostic aid.
The mark [7] stands for this setting: TherapeuticCategory: narcotic analgesic.
The mark [8] stands for this setting: TherapeuticCategory: pharmaceutic aid.
The mark [9] stands for this setting: TherapeuticCategory: antihistaminic.
Setting [10] is: TherapeuticCategory: antineoplastic.

In the case of `O=C(O)c1cc(O)c2c(c1)[C@H]([C@H]1c3cc(C(=O)O)cc(O)c3C(=O)c3c(O[C@@H]4O[C@H](CO)[C@@H](O)[C@H](O)[C@H]4O)cccc31)c1cccc(O[C@@H]3O[C@H](CO)[C@@H](O)[C@H](O)[C@H]3O)c1C2=O`, under “TherapeuticCategory: cathartic”, the maximum recommended daily dose (mmol/kg-bw/day) is 0.0194.

For `NC(=O)c1cnccn1`, the maximum recommended daily dose (mmol/kg-bw/day) under setting [1] is 0.244.

For the compound `CN(C)CCCN1c2ccccc2CCc2ccc(Cl)cc21`, the maximum recommended daily dose (mmol/kg-bw/day) under setting [2] was 0.0132.

For `O=C(O)C1CCc2cc(C3CCCCC3)c(Cl)cc21` (centres undefined), under “TherapeuticCategory: anti inflammatory, antipyretic”, the maximum recommended daily dose (mmol/kg-bw/day) was 0.00269.

Consider `C=C[C@H]1CN2CC[C@H]1C[C@@H]2[C@@H](O)c1ccnc2ccc(OC)cc12`, for which the maximum recommended daily dose (mmol/kg-bw/day) (TherapeuticCategory: anthiarrythmic) is 0.0308.

`CC(=O)OCC(=O)[C@@]1(O)[C@H](C)C[C@H]2[C@@H]3C[C@H](F)C4=CC(=O)C=C[C@]4(C)[C@H]3[C@@H](O)C[C@@]21C`: the maximum recommended daily dose (mmol/kg-bw/day) under setting [3] is 0.000921.

Take `CC(=O)N[C@H]1[C@H]([C@H](O)[C@H](O)CO)OC(C(=O)O)=C[C@@H]1N=C(N)N`: the maximum recommended daily dose (mmol/kg-bw/day) (TherapeuticCategory: neuraminidase inhibitors) is 0.001.

For `CC(=O)OCC(=O)[C@@]1(OC(=O)c2ccco2)[C@H](C)C[C@H]2[C@@H]3CCC4=CC(=O)C=C[C@]4(C)[C@@]3(F)[C@@H](O)C[C@@]21C`, the maximum recommended daily dose (mmol/kg-bw/day) (TherapeuticCategory: glucocorticoid, anti inflammatory) is 0.000284.

For the compound `Cc1ccc(S(=O)(=O)NC(=O)NN2CCCCCC2)cc1`, the maximum recommended daily dose (mmol/kg-bw/day) under setting [4] was 0.0536.

Turning to `c1ccc(CC2=NCCN2)cc1`, the maximum recommended daily dose (mmol/kg-bw/day) (TherapeuticCategory: antiadrenergic) is 0.0125.

For `O=c1[nH]c(=O)n([C@H]2C[C@H](O)[C@@H](CO)O2)cc1F`, the maximum recommended daily dose (mmol/kg-bw/day) (TherapeuticCategory: antiviral, antineoplastic) is 0.00244.

Take `CCN(CC)CCNC(=O)c1ccc(N)cc1`: the maximum recommended daily dose (mmol/kg-bw/day) (TherapeuticCategory: antiarrhythmic) is 0.212.

Turning to `Cc1nnc2n1-c1sc(Br)cc1C(c1ccccc1Cl)=NC2`, under setting [5], the maximum recommended daily dose (mmol/kg-bw/day) was 1.06e-05.

With `CN(C)CC/C=C1/c2ccccc2COc2ccccc21`, under setting [2], the maximum recommended daily dose (mmol/kg-bw/day) was 0.0179.

With `CC(O)Cn1cnc2c1c(=O)n(C)c(=O)n2C` (centres undefined), the maximum recommended daily dose (mmol/kg-bw/day) (TherapeuticCategory: bronchodilator, vasodilator, smooth muscle relaxant) is 0.168.

Consider `Oc1c(I)cc(I)c2cccnc12`, for which the maximum recommended daily dose (mmol/kg-bw/day) (TherapeuticCategory: antiamebic) was 0.0756.

For the compound `CN(C)CCC(c1ccccc1)c1ccccn1` (centres undefined), the maximum recommended daily dose (mmol/kg-bw/day) (TherapeuticCategory: antihistaminic, antipruritic) was 0.0026.

On to `C[N+](C)(C)CCCCCCCCCC[N+](C)(C)C`, for which the maximum recommended daily dose (mmol/kg-bw/day) (TherapeuticCategory: skeletal muscle relaxant) is 9.97e-05.

`NC(=O)NC(=O)Cc1ccccc1`: where the note is “TherapeuticCategory: anticonvulsant”, the maximum recommended daily dose (mmol/kg-bw/day) was 0.281.

Turning to `CC(C)NCC(O)c1ccc(NS(C)(=O)=O)cc1` (centres undefined), the maximum recommended daily dose (mmol/kg-bw/day) (TherapeuticCategory: antianginal, antiarrhythmic, antihypertensive) was 0.0196.

With `CCOc1ccc2ccccc2c1C(=O)N[C@@H]1C(=O)N2[C@@H]1SC(C)(C)[C@@H]2C(=O)O`, under setting [1], the maximum recommended daily dose (mmol/kg-bw/day) is 0.241.

Take `CCN(CC)C(=O)C1CN2CCc3cc(OC)c(OC)cc3C2CC1OC(C)=O` (centres undefined): the maximum recommended daily dose (mmol/kg-bw/day) (TherapeuticCategory: antipsychotic, antiemeic) is 0.00103.

`CO/N=C(/C(=O)N[C@@H]1C(=O)N2C(C(=O)O)=C(COC(C)=O)CS[C@H]12)c1csc(N)n1`: the maximum recommended daily dose (mmol/kg-bw/day) under setting [1] was 0.439.

Regarding `CCOC(=O)CCCCCCCCC(C)c1ccc(I)cc1` (centres undefined), under setting [6], the maximum recommended daily dose (mmol/kg-bw/day) was 0.3.

`CCC(=O)O[C@](Cc1ccccc1)(c1ccccc1)[C@H](C)CN(C)C`: under setting [7], the maximum recommended daily dose (mmol/kg-bw/day) is 0.0191.

On to `CCN(CCO)CCCC(C)Nc1ccnc2cc(Cl)ccc12` (centres undefined), for which, for the setting “TherapeuticCategory: antimalarial, antirheumatic, lupus erythematosus suppressant”, the maximum recommended daily dose (mmol/kg-bw/day) was 0.0298.

Turning to `CS(=O)(=O)c1ccc([C@@H](O)[C@@H](COC(=O)CN)NC(=O)C(Cl)Cl)cc1`, the maximum recommended daily dose (mmol/kg-bw/day) under setting [1] was 0.111.

Take `CCOc1ccc(NC(C)=O)cc1`: the maximum recommended daily dose (mmol/kg-bw/day) (TherapeuticCategory: anticonvulsant, analgesic, antipyretic) is 0.279.

For the compound `O=C(O)CN(CCN(CC(=O)O)CC(=O)O)CC(=O)O`, the maximum recommended daily dose (mmol/kg-bw/day) under setting [8] is 0.24.

As for `CCOC(=O)N1CCC(=C2c3ccc(Cl)cc3CCc3cccnc32)CC1`, under setting [9], the maximum recommended daily dose (mmol/kg-bw/day) was 0.000436.

`c1ccc(C2(N3CCCCC3)CCCCC2)cc1`: under “TherapeuticCategory: analgesic, anesthetic”, the maximum recommended daily dose (mmol/kg-bw/day) is 0.000822.

Take `CCOC(=O)c1cncn1C(C)c1ccccc1` (centres undefined): the maximum recommended daily dose (mmol/kg-bw/day) (TherapeuticCategory: anticholinergic) was 0.00246.

For `N[C@@H](CC(=O)O)C(=O)O`, for the setting “TherapeuticCategory: roborant”, the maximum recommended daily dose (mmol/kg-bw/day) is 0.751.

Regarding `CO[C@@]12[C@H](COC(N)=O)C3=C(C(=O)C(C)=C(N)C3=O)N1C[C@@H]1N[C@@H]12`, the maximum recommended daily dose (mmol/kg-bw/day) under setting [10] was 0.00162.

For `O=C(O)CCCc1ccc(N(CCCl)CCCl)cc1`, the maximum recommended daily dose (mmol/kg-bw/day) under setting [10] was 0.000657.

`CCCCOc1ccc(C[N+]2(C)[C@@H]3CC[C@H]2CC(OC(=O)[C@H](CO)c2ccccc2)C3)cc1` (some centres undefined): where the note is “TherapeuticCategory: antispasmotic, anticholinergic”, the maximum recommended daily dose (mmol/kg-bw/day) is 0.000915.

On to `CCCOC(=O)c1ccc(O)cc1`, for which the maximum recommended daily dose (mmol/kg-bw/day) under setting [8] is 0.0555.

Turning to `C=CCC1(C(C)C#CCC)C(=O)NC(=O)N(C)C1=O` (centres undefined), the maximum recommended daily dose (mmol/kg-bw/day) (TherapeuticCategory: anesthetic) is 0.00762.

In the case of `NS(=O)(=O)c1cc(C2(O)NC(=O)c3ccccc32)ccc1Cl` (centres undefined), the maximum recommended daily dose (mmol/kg-bw/day) (TherapeuticCategory: diuretic, antihypertensive) is 0.00246.

In the case of `Cc1c(C(=O)O)c(O)cc2c1C(=O)c1c(O)c([C@@H]3O[C@H](CO)[C@@H](O)[C@H](O)[C@H]3O)c(O)c(O)c1C2=O`, the maximum recommended daily dose (mmol/kg-bw/day) (TherapeuticCategory: none) is 0.0169.

Turning to `CN(C)CCC(c1ccc(Cl)cc1)c1ccccn1` (centres undefined), the maximum recommended daily dose (mmol/kg-bw/day) under setting [9] was 0.000484.

Turning to `C[C@]12C=CC(=O)C=C1CC[C@@H]1[C@@H]2CC[C@]2(C)OC(=O)CC[C@@H]12`, the maximum recommended daily dose (mmol/kg-bw/day) under setting [10] was 0.0139.

For the compound `COc1ccc(/C=C/C(=O)Nc2ccccc2C(=O)O)cc1OC`, where the note is “TherapeuticCategory: antiallergic”, the maximum recommended daily dose (mmol/kg-bw/day) is 0.0153.

In the case of `NC(=O)c1ncn([C@@H]2O[C@H](CO)[C@@H](O)[C@H]2O)n1`, the maximum recommended daily dose (mmol/kg-bw/day) (TherapeuticCategory: antiviral) was 0.819.

`C[C@]12C=CC(=O)C=C1C(Cl)=C[C@@H]1[C@@H]2[C@@H](O)C[C@@]2(C)[C@H]1CC[C@]2(O)C(=O)CO`: the maximum recommended daily dose (mmol/kg-bw/day) under setting [3] was 0.000529.

In the case of `CCCCC[C@H](O)/C=C/[C@@H]1[C@H]2C/C(=C/CCCC(=O)O)O[C@H]2C[C@H]1O`, where the note is “TherapeuticCategory: platelet aggregation inhibitor”, the maximum recommended daily dose (mmol/kg-bw/day) is 2.84e-08.

In the case of `O=C(O)COc1ccc(C(=O)c2cccs2)c(Cl)c1Cl`, the maximum recommended daily dose (mmol/kg-bw/day) (TherapeuticCategory: diuretic, uricosuric, antihypertensive) is 0.0252.

Regarding `CN(CCOc1ccc(CC2SC(=O)NC2=O)cc1)c1ccccn1` (centres undefined), the maximum recommended daily dose (mmol/kg-bw/day) under setting [4] is 0.000281.

Regarding `CNC(=O)c1c(I)c(NC(=O)CCCCC(=O)Nc2c(I)c(C(=O)O)c(I)c(C(=O)NC)c2I)c(I)c(C(=O)O)c1I`, the maximum recommended daily dose (mmol/kg-bw/day) under setting [6] was 0.0798.

In the case of `NC(=S)N=Nc1ccc(NN=C(N)N)cc1`, the maximum recommended daily dose (mmol/kg-bw/day) under setting [1] was 0.000704.

Turning to `NCCCCCC(=O)O`, the maximum recommended daily dose (mmol/kg-bw/day) (TherapeuticCategory: hemostatic) is 1.52.

On to `O=C1CN=C(c2ccccc2)c2cc(Cl)ccc2N1CC(F)(F)F`, for which the maximum recommended daily dose (mmol/kg-bw/day) (TherapeuticCategory: anxiolytic) was 0.00757.

For the compound `N=C(N)c1ccc(N=NNc2ccc(C(=N)N)cc2)cc1` (tested in a mixture with another compound), the maximum recommended daily dose (mmol/kg-bw/day) (TherapeuticCategory: antiprotozoal) is 0.0097.

As for `CCOC(=O)C1(c2ccccc2)CCN(CCc2ccc(N)cc2)CC1`, the maximum recommended daily dose (mmol/kg-bw/day) under setting [7] was 0.00945.

For `CCC[C@@H]1C[C@@H](C(=O)N[C@@H]([C@H]2O[C@H](SC)[C@H](O)[C@@H](O)[C@H]2O)[C@H](C)Cl)N(C)C1`, under setting [1], the maximum recommended daily dose (mmol/kg-bw/day) is 0.0706.

Regarding `CC(CN1c2ccccc2Sc2ccccc21)N(C)C` (centres undefined), the maximum recommended daily dose (mmol/kg-bw/day) under setting [9] is 0.00587.

For the compound `CC1C2Cc3ccc(O)cc3C1(C)CCN2CC1CC1` (centres undefined), where the note is “TherapeuticCategory: narcotic antagonist”, the maximum recommended daily dose (mmol/kg-bw/day) is 0.000246.

Take `Clc1ccc2c(c1)C(c1ccccc1)=NCc1nncn1-2`: the maximum recommended daily dose (mmol/kg-bw/day) under setting [5] is 0.000113.

Regarding `CO[C@@]1(NC(=O)CSCC#N)C(=O)N2C(C(=O)O)=C(CSc3nnnn3C)CS[C@@H]21`, the maximum recommended daily dose (mmol/kg-bw/day) under setting [1] is 0.212.
